Results reported in PMC5054527, “Mechanism of high affinity inhibition of the human urate transporter URAT1” (Scientific Reports, 2016).
Where “and” joins values, the source holds several entries; their conditions need not be identical. Identical values can stand only once.

Tests used:
[1] = target: T1, hURAT1-S35N/F365Y double point mutant (Homo sapiens, UniProt Q96S37, F365Y/S35N); experiment: URAT1 uric acid transport activity assay; type: cell-based
T1 construct: hURAT1 and rURAT1 are 553 amino acid proteins with 12 transmembrane segments; expressed in transfected cells; host or cells: HEK-293T

[2] = target: T2, h-M474V hURAT1 point mutant (Homo sapiens, UniProt Q96S37, M474V); experiment: URAT1 uric acid transport activity assay; type: cell-based; details: HEPES pH 7.3, 100 μM 14C-uric acid
T2 construct: expressed in transfected cells; host or cells: HEK-293T

[3] = target: T3, h-C32T hURAT1 point mutant (Homo sapiens, UniProt Q96S37, C32T); experiment: URAT1 uric acid transport activity assay; type: cell-based; details: HEPES pH 7.3, 100 μM 14C-uric acid
T3 construct: expressed in transfected cells; host or cells: HEK-293T

[4] = target: T4, h-V26T hURAT1 point mutant (Homo sapiens, UniProt Q96S37, V26T); experiment: URAT1 uric acid transport activity assay; type: cell-based; details: HEPES pH 7.3, 100 μM 14C-uric acid
T4 construct: expressed in transfected cells; host or cells: HEK-293T

[5] = target: T5, h-M25V hURAT1 point mutant (Homo sapiens, UniProt Q96S37, M25V); experiment: URAT1 uric acid transport activity assay; type: cell-based
T5 construct: expressed in transfected cells; host or cells: HEK-293T

[6] = target: T6, h-T21A hURAT1 point mutant (Homo sapiens, UniProt Q96S37, T21A); experiment: URAT1 uric acid transport activity assay; type: cell-based; details: HEPES pH 7.3, 100 μM 14C-uric acid
T6 construct: expressed in transfected cells; host or cells: HEK-293T

[7] = target: T7, h-I481M hURAT1 point mutant (Homo sapiens, UniProt Q96S37, I481M); experiment: URAT1 uric acid transport activity assay; type: cell-based
T7 construct: expressed in transfected cells; host or cells: HEK-293T

[8] = target: T8, h-S27P hURAT1 point mutant (Homo sapiens, UniProt Q96S37, S27P); experiment: URAT1 uric acid transport activity assay; type: cell-based; details: HEPES pH 7.3, 100 μM 14C-uric acid
T8 construct: expressed in transfected cells; host or cells: HEK-293T

[9] = target: T9, h-M29L hURAT1 point mutant (Homo sapiens, UniProt Q96S37, M29L); experiment: URAT1 uric acid transport activity assay; type: cell-based; details: HEPES pH 7.3, 100 μM 14C-uric acid
T9 construct: expressed in transfected cells; host or cells: HEK-293T

[10] = target: T10, h-M22V hURAT1 point mutant (Homo sapiens, UniProt Q96S37, M22V); experiment: URAT1 uric acid transport activity assay; type: cell-based; details: HEPES pH 7.3, 100 μM 14C-uric acid
T10 construct: expressed in transfected cells; host or cells: HEK-293T

[11] = target: T11, h-C351F/T354M hURAT1 double point mutant (Homo sapiens, UniProt Q96S37, C351F/T354M); experiment: URAT1 uric acid transport activity assay; type: cell-based; details: HEPES pH 7.3, 100 μM 14C-uric acid
T11 construct: expressed in transfected cells; host or cells: HEK-293T
Procedure, shortened: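 Readout: 14C-uric acid uptake (100 μM, 10 min) in cells transiently transfected one day earlier with mutant rURAT1. Serially diluted inhibitors were added 5 min before substrate. Triplicate points, four-parameter logistic fit for IC50.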

[12] = target: T12, h-V18L hURAT1 point mutant (Homo sapiens, UniProt Q96S37, V18L); experiment: URAT1 uric acid transport activity assay; type: cell-based; details: HEPES pH 7.3, 100 μM 14C-uric acid
T12 construct: expressed in transfected cells; host or cells: HEK-293T

h-r TM9-N URAT1 chimera = target: T13, h-r TM9-N URAT1 chimera (Homo sapiens, UniProt Q96S37, A411S/A416P/L414V); experiment: URAT1 uric acid transport activity assay; type: cell-based, human/rat; details: HEPES pH 7.3, 100 μM 14C-uric acid
T13 construct: expressed in transfected cells; host or cells: HEK-293T
Text: (§1) hURAT1 (GenBank BC053348.1) and rURAT1 (NCBI NM_001034943.1) genes were purchased from Origene Technologies, Inc. and subcloned into pCMV6/neo using NotI, creating pCMV6/neo-hURAT1 and pCMV6/neo-rURAT1. Mutants were produced by polymerase chain reaction (PCR) or site-directed mutagenesis using the QuikChange Lightning Multi Site-Directed Mutagenesis Kit (Agilent Technologies). […] Detailed methods are provided in Supplementary Methods, and primers are listed in Supplementary Table 1. […] Residues in rURAT1 and hOAT1 that correspond to the residues in hURAT1 were identified from aligned protein sequences (Supplementary Fig. 1)[50].
(§2) DNA (10 μg) was mixed with 30 μl of DreamFect Gold (Boca Scientific) in 2 ml OptiMem (Life Technologies). After 20 minutes, 18 ml of media containing 2 × 10^7 cells in suspension was added and mixed, and 200 μl per well were plated onto white clear-bottomed poly-D-lysine coated 96-well plates (BD Biosciences). The cells were assayed the following day.
(§3) Compounds were serially diluted into assay buffer and added to the cells for 5 minutes prior to addition of radiolabelled uric acid substrate. URAT1-expressing cells were incubated with 100 μM ^14C-uric acid for 10 minutes. […] Each treatment was measured in triplicate.
(§4) Unlabelled uric acid was prepared at a 20 mM stock just prior to use in a solution containing 20 mM dibasic potassium phosphate and 20 mM potassium hydroxide.
(§5) Nonlinear regression analyses using GraphPad Prism software were used to calculate the potency of URAT1 inhibitors (IC50 values) from log (inhibitor) versus response - variable slope (four parameters) equations. Statistical significance was assessed using Student’s unpaired t-tests.

[13] = target: T14, r-h TM1 chimera (hURAT1 residues 1–99 and rURAT1 residues 100–553) (UniProt Q3ZAV1+Q96S37); experiment: URAT1 uric acid transport activity assay; type: cell-based, human/rat; details: HEPES pH 7.3, 100 μM 14C-uric acid
T14 construct: The chimera r-hTM1, consisting of hURAT1 residues 1–99 and rURAT1 residues 100–553; expressed in transfected cells; host or cells: HEK-293T
Text: as §1, §2, §3, §4, §5

h-r TM6 URAT1 chimera = target: T15, h-r TM6 URAT1 chimera (Homo sapiens, UniProt Q96S37, C272F/L274V); experiment: URAT1 uric acid transport activity assay; type: cell-based, human/rat; details: HEPES pH 7.3, 100 μM 14C-uric acid
T15 construct: expressed in transfected cells; host or cells: HEK-293T
Text: as §1, §2, §3, §4, §5

h-r TM5-C URAT1 chimera = target: T16, h-r TM5-C URAT1 chimera (Homo sapiens, UniProt Q96S37, A249G/A250S/G246V/H245Q); experiment: URAT1 uric acid transport activity assay; type: cell-based, human/rat; details: HEPES pH 7.3, 100 μM 14C-uric acid
T16 construct: expressed in transfected cells; host or cells: HEK-293T
Text: as §1, §2, §3, §4, §5

h-r TM5-N URAT1 chimera = target: T17, h-r TM5-N URAT1 chimera (Homo sapiens, UniProt Q96S37, S238A/V233M); experiment: URAT1 uric acid transport activity assay; type: cell-based, human/rat; details: HEPES pH 7.3, 100 μM 14C-uric acid
T17 construct: expressed in transfected cells; host or cells: HEK-293T
Text: as §1, §2, §3, §4, §5

h-r TM10 URAT1 chimera = target: T18, h-r TM10 URAT1 chimera (Homo sapiens, UniProt Q96S37, G444S/I452V/V445L/Y455F); experiment: URAT1 uric acid transport activity assay; type: cell-based, human/rat; details: HEPES pH 7.3, 100 μM 14C-uric acid
T18 construct: expressed in transfected cells; host or cells: HEK-293T
Text: as §1, §2, §3, §4, §5

h-r TM8 URAT1 chimera = target: T19, h-r TM8 URAT1 chimera (Homo sapiens, UniProt Q96S37, A392V/A396S/F384L/H402R/I390L/M383A/P407L/V387I); experiment: URAT1 uric acid transport activity assay; type: cell-based, human/rat; details: HEPES pH 7.3, 100 μM 14C-uric acid
T19 construct: expressed in transfected cells; host or cells: HEK-293T
Text: as §1, §2, §3, §4, §5

[14] = target: h-r EC1,TM2-4 URAT1 chimera (Homo sapiens, UniProt Q96S37, A103T/A133T/A162V/A184S/A189I/A193M/A195T/A226S/A51V/A59S/A71V/D100E/E110D/E70D/F192L/F208S/G218A/H142Q/I126T/I75V/K134T/K145R/L174R/L206V/L64P/L67F/L99I/M183V/M186S/N136D/N82D/P101S/P165H/P69R/Q182L/R124H/R89L/S107N/S46H/S66D/S68G/T128R/T219S/V117E/V198L/Y152F); experiment: cell-based; details: IC50 (uric acid transport), HEPES pH 7.3, 100 μM 14C-uric acid
Text: as §1
DNA (10 μg) was mixed with 30 μl of DreamFect Gold (Boca Scientific) in 2 ml OptiMem (Life Technologies). […]
Compounds were serially diluted into assay buffer and added to the cells for 5 minutes prior to addition of radiolabelled uric acid substrate. […] Each treatment was measured in triplicate. […]
as §5

T9 sequence (Q96S37 whole entry M29L): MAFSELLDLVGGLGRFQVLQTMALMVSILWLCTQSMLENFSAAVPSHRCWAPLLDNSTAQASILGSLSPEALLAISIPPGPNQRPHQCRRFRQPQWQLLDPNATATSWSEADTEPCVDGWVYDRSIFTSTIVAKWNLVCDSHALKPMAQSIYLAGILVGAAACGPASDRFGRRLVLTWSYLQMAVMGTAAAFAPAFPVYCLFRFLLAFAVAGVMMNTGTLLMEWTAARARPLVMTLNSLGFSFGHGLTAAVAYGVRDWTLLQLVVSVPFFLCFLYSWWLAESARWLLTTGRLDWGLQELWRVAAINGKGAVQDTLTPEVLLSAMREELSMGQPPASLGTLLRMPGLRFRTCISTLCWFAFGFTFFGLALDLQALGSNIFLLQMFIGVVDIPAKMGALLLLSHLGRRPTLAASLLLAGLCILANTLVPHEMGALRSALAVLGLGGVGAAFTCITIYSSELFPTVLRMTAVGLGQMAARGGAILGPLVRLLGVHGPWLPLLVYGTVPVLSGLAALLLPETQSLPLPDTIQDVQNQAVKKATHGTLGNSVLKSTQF
Chain of h-r EC1,TM2-4 URAT1 chimera (Q96S37 1-553 with the stated changes): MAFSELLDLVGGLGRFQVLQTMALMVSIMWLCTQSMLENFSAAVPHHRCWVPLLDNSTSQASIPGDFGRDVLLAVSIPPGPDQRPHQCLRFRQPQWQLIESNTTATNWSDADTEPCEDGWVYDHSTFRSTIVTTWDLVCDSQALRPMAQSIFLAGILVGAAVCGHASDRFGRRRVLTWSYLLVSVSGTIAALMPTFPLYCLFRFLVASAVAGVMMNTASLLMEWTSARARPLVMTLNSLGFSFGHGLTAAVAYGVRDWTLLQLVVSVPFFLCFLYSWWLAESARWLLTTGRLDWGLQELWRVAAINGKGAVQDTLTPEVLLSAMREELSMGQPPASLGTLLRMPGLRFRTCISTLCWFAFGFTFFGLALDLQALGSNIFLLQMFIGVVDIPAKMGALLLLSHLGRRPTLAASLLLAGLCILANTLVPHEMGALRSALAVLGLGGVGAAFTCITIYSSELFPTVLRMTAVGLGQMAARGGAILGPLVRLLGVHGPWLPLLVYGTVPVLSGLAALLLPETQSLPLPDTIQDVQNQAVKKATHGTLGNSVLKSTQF
T1 sequence (Q96S37 whole entry S35N/F365Y): as the sequence (Q96S37 whole entry M29L) above, with L29M, S35N, F365Y counted along it
T7 sequence (Q96S37 whole entry I481M): as the sequence (Q96S37 whole entry M29L) above, with L29M, I481M counted along it
T5 sequence (Q96S37 whole entry M25V): as the sequence (Q96S37 whole entry M29L) above, with M25V, L29M counted along it
T8 sequence (Q96S37 whole entry S27P): as the sequence (Q96S37 whole entry M29L) above, with S27P, L29M counted along it
T2 sequence (Q96S37 whole entry M474V): as the sequence (Q96S37 whole entry M29L) above, with L29M, M474V counted along it
T3 sequence (Q96S37 whole entry C32T): as the sequence (Q96S37 whole entry M29L) above, with L29M, C32T counted along it
T6 sequence (Q96S37 whole entry T21A): as the sequence (Q96S37 whole entry M29L) above, with T21A, L29M counted along it
T12 sequence (Q96S37 whole entry V18L): as the sequence (Q96S37 whole entry M29L) above, with V18L, L29M counted along it
T18 sequence (Q96S37 whole entry G444S/V445L/I452V/Y455F): as the sequence (Q96S37 whole entry M29L) above, with L29M, G444S, V445L, I452V, Y455F counted along it
T19 sequence (Q96S37 whole entry M383A/F384L/V387I/I390L/A392V/A396S/H402R/P407L): as the sequence (Q96S37 whole entry M29L) above, with L29M, M383A, F384L, V387I, I390L, A392V, A396S, H402R, P407L counted along it
T4 sequence (Q96S37 whole entry V26T): as the sequence (Q96S37 whole entry M29L) above, with V26T, L29M counted along it
T15 sequence (Q96S37 whole entry C272F/L274V): as the sequence (Q96S37 whole entry M29L) above, with L29M, C272F, L274V counted along it
T11 sequence (Q96S37 whole entry C351F/T354M): as the sequence (Q96S37 whole entry M29L) above, with L29M, C351F, T354M counted along it
T10 sequence (Q96S37 whole entry M22V): as the sequence (Q96S37 whole entry M29L) above, with M22V, L29M counted along it
T16 sequence (Q96S37 whole entry H245Q/G246V/A249G/A250S): as the sequence (Q96S37 whole entry M29L) above, with L29M, H245Q, G246V, A249G, A250S counted along it
T13 sequence (Q96S37 whole entry A411S/L414V/A416P): as the sequence (Q96S37 whole entry M29L) above, with L29M, A411S, L414V, A416P counted along it
T14 sequence (Q96S37 1-99, change not shown): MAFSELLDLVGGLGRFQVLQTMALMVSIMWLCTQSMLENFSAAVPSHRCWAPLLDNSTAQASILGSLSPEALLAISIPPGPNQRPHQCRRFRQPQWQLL
T14 sequence (Q3ZAV1 100-553, change not shown): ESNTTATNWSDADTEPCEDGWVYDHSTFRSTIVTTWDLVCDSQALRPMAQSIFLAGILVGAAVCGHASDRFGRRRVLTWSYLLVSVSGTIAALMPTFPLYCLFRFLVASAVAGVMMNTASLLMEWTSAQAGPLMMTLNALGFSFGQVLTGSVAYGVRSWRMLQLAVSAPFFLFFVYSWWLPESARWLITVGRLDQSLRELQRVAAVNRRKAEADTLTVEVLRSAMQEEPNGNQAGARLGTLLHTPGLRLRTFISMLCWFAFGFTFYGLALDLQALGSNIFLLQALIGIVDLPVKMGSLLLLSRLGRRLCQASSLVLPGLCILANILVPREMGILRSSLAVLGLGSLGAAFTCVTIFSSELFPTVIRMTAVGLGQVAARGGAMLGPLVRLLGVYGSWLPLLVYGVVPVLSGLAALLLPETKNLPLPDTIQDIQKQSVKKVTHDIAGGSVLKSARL
T17 sequence (Q96S37 whole entry V233M/S238A): as the sequence (Q96S37 whole entry M29L) above, with L29M, V233M, S238A counted along it

SMILES: O=c1[nH]c(=O)c2[nH]c(=O)[nH]c2[nH]1 [uric acid]
- fold decrease in affinity of h-S35N/F365Y relative to hURAT1 ([1]; from IC50 values): 3.9 fold
- IC50 ([1]; hURAT1-S35N/F365Y, MES pH 5.5, 100 μM 14C-uric acid): 960 µM

SMILES: O=C1C(CC[S+]([O-])c2ccccc2)C(=O)N(c2ccccc2)N1c1ccccc1 (centres unmarked) [sulfinpyrazone]
- IC50 [2]: 30 ± 3.4 µM
- IC50 [3]: 29 ± 3.2 µM
- IC50 [4]: 21 ± 4.7 µM
- fold reduced affinity of h-M25V compared to hURAT1 ([5]; from IC50 values): 1.7 fold
- IC50 ([5]; h-M25V, HEPES pH 7.3, 100 μM 14C-uric acid): 53 ± 6 µM
- IC50 [6]: 12 ± 2.3 µM
- fold reduced affinity of h-I481M compared to hURAT1 ([7]; from IC50 values): 4 fold
- IC50 ([7]; h-I481M, HEPES pH 7.3, 100 μM 14C-uric acid): 118 ± 8.1 µM
- IC50 [8]: 9.3 µM and 9 µM
- IC50 [9]: 8.5 µM and 9 µM
- IC50 [10]: 28 ± 3.1 µM
- IC50 [11]: 60 ± 5.9 µM
- IC50 [12]: 19 ± 4.7 µM
- IC50 (h-r TM9-N URAT1 chimera): 36 ± 17 µM
- IC50 [13]: 87 ± 25 µM
- IC50 (h-r TM6 URAT1 chimera): 30 ± 4 µM
- IC50 (h-r TM5-C URAT1 chimera): 34 ± 4 µM
- IC50 (h-r TM5-N URAT1 chimera): 37 ± 9 µM
- IC50 (h-r TM10 URAT1 chimera): 49 ± 11 µM
- IC50 (h-r TM8 URAT1 chimera): 29 ± 13 µM
- IC50 [14]: 3 µM and 3.4 µM
